Test results published in patent US20210293825A1, “METHODS FOR PRECISION THERAPEUTIC TARGETING OF HUMAN CANCER CELL MOTILITY AND KITS THEREOF” (UNITED STATES GOVERNMENT AS REPRESENTED BY THE DEPARTMENT …, priority 2018, published 2021).

Tests used:
human prostate cells = assay: Three day cell growth inhibition, human prostate cells; assay type: cell-based; conditions: 3 days growth inhibition
From the text: FIG. 1a is a schematic flow of probe synthesis and development strategy. […] Values are mean±SEM of a single experiment in replicates of N=4, with similar findings in multiple separate experiments (also N=4). […] Values are mean±SEM of a single experiment in replicates of N=24, with similar findings in a separate experiment (also N=24). *Denotes Student's t test P value <0.05, compared to controls. […] Values are mean±SEM from N>2 separate experiments, each in replicates of N=3. […] Values are the mean±SD number of total, CFU-GM, CFU-GEMM or BFU-E colonies at 14 days after treatment with KBU2046, from a single experiment in replicates of N=2. […] Values are the mean±SD of a single experiment, with similar results seen in a separate experiment, both in replicates of N=2.
Assays were in replicates of N=3, and were repeated.

[1] = biological target: T1, client protein binding to CDC37/HSP90β heterocomplexes (Homo sapiens, UniProt P08238+Q16543); assay: Modified LUMIER assay; assay type: cell-based
T1 construct: expressed in transfected cells; host or cells: HEK293T
T1 sequence (P08238 2-724): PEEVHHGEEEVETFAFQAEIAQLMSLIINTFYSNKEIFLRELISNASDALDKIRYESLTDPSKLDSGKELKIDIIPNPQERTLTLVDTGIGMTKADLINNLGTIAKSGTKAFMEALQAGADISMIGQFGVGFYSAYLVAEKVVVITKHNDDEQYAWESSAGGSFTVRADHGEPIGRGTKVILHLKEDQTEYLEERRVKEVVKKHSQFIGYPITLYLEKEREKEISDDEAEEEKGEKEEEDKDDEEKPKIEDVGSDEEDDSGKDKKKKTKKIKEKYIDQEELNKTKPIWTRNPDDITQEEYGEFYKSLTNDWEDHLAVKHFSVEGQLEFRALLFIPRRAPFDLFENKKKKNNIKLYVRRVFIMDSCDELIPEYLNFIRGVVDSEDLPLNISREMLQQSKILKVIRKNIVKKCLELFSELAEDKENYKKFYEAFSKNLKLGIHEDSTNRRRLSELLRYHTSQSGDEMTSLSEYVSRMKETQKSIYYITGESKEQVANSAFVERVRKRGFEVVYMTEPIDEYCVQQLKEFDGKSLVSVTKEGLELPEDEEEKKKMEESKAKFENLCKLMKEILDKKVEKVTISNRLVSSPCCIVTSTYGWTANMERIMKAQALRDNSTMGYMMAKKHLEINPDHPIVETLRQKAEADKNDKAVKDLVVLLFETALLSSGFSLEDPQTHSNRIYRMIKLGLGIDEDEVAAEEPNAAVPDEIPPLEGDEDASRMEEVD
T1 sequence (Q16543 whole entry): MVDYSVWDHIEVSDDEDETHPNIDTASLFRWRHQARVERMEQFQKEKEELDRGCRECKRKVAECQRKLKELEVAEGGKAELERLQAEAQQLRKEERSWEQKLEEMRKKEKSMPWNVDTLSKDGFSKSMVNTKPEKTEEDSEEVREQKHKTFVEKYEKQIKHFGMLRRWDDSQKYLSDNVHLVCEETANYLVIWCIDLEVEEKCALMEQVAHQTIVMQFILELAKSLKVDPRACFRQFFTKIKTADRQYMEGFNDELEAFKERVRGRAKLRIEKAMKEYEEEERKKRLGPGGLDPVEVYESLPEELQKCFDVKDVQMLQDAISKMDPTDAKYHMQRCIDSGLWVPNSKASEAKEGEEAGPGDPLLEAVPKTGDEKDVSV
Protocol: (§1) HEK293T cells were transfected with 1 of 420 different protein kinases, treated with 10 μM KBU2046 (N=5 replicates) or vehicle control (N=5) for three days, and LUMIER assays performed. The N=17 kinases that gave significant findings (Student's t-test <0.05) in the same direction in each of two separate experiments are depicted. Each separate treatment and kinase condition in each of two separate experiments was conducted in replicates of N=5. […] FIGS. 6c and 6d show the results of the wound healing assay. PC3 cells were transfected with siRNA targeting RAF1 (si-Raf1) or non-targeting siRNA (si-control), treated with KBU2046 or vehicle as above, and RAF1 protein measured by Western blot (c) and effects upon wound healing measured (d). […] Purified recombinant HSP90β, CDC37, and RAF1 were combined with KBU2046, as indicated, incubated in an in vitro kinase assay for the indicated times, and Western blot for RAF1-Ser^338 phosphorylation performed. FIGS. 6f and 6g show the effect on HSP90β/CDC37 heterocomplex formation and function in vitro. Purified recombinant HSP90β, CDC37, RAF1, SGK3 or MAP3K6 were combined and treated with KBU2046 or vehicle control, as indicated, incubated in an in vitro kinase assay for the indicated times, and Western blot performed, as denoted. Experiments were repeated at separate times at least once, with similar results.
(§2) To examine whether this is associated with an altered signature of bound client kinase proteins, a modified LUMIER assay (Taipale, M. et al., Cell 150, 987-1001 (2012)) was performed to detect KBU2046-induced changes in client protein binding to CDC37/HSP90β heterocomplexes in intact cells. […] These findings are in contrast to classical inhibitors of HSP90 function which have been shown, through this same assay, to affect the binding of the majority client kinase proteins (Taipale, M. et al., Cell 150, 987-1001 (2012)).
(§3) LUMIER assay. The LUMIER assay was performed as described (Taipale, M. et al., Cell 150, 987-1001 (2012)).
(§4) Experiments had N=5 vehicle treated control plus N=5 KBU2046 treated separate wells of cells. Those yielding a t-test p value <0.05 in experiment #1, or those whose values were at or below baseline, were repeated in experiment #2. […] Of 420 kinase proteins tested, 17 (4%) met these criteria (FIG. 6a). For these 17 kinases, the experiment was repeated except that HEK293T cells were treated with TGFβ for the last 24 hrs of the 3 day incubation (FIG. 6b).

[2] = tested on: client protein binding to CDC37/HSP90β heterocomplexes; assay: Modified LUMIER assay; assay type: cell-based
Protocol: as §1, §2, §3, §4

PC3 or PC3M cells = assay: Scratch wound healing assay with siRNA knockdown; assay type: cell-based, human
Protocol: as §1
FIGS. 24b-d show the results of the wound healing assay. PC3 or PC3M cells were treated+/−KBU2046 and with siRNA to the denoted gene, or with non-targeting control siRNA (NT), and effects upon transcript (b) or protein expression (c) measured by qRT/PCR or Western blot, respectively. For qRT/PCR, values are expressed as the target gene/GAPDH ratio, normalized to that of NT/−KBU2046 cells. Under the same conditions, wound healing assays were performed (d).
Scratch Wound Assays. Cells were transfected with the indicated si-RNA constructs per manufacture protocol (GE-Dharmacon), cultured 48 hrs with 10 μM KBU2046 or vehicle, and scratch wound assay performed as described (Xiao, X. et al., Oncotarget 6, 3225-39 (2015)). […]

O=C1c2ccccc2OCC1c1ccc(F)cc1 (racemic) [KBU2046, (±)-3(4-fluorophenyl)chroman-4-one]
toxicity to human prostate cells (human prostate cells): not toxic
RAF1 binding to complexes ([1]; TGFβ treated cells): decreased binding
RIPKI binding to complexes ([1]; TGFβ treated cells): decreased
SGK3 binding to complexes ([1]; TGFβ treated cells): increased
MAP3K6 binding to complexes ([1]; intact cells): increases MAP3K6 binding to complexes
number of kinases with decreased binding ([2]; 10 μM, 3 days): 7
number of kinases with increased binding ([2]; 10 μM, 3 days): 10
share of kinases whose binding was significantly changed ([2]; of 420 kinase proteins): 4%
number of kinases whose binding was significantly changed ([2]; of 420 kinase proteins, 10 μM, 3 days): 17
efficacy on motility (PC3 or PC3M cells; SGK3 knockdown): still retained efficacy
RAF1 protein expression levels (PC3 or PC3M cells; Western blot, cells): did not alter RAF1 protein expression levels
efficacy on motility (PC3 or PC3M cells; knockdown of RAF1 or of RIPK1): mitigated KBU2046 efficacy
